# From PMC5159191 (Nature, 2016)
# Tested on: CCR2-T4L
# Format: binding, human
# Settings: [3H]-INCB-3344 homologous displacement
compound,measurement,value
CCO[C@H]1CN(C2CCC(O)(c3ccc4c(c3)OCO4)CC2)C[C@@H]1NC(=O)CNC(=O)c1cccc(C(F)(F)F)c1 (stereo partly shown) [INCB-3344],improvement of affinity towards CCR2-T4L compared to WT CCR2,approximately 2 fold
